“Also recorded” adds a separate entry of the source.
Assays:
[1] = target: T1, AC3 (Rattus norvegicus, UniProt P21932); experiment: Adenyl cyclase stimulation by forskolin derivatives, High five cell membranes overexpressing type III; type: biochemical; details: 5 mM MgCl2
T1 sequence (P21932 1-1144): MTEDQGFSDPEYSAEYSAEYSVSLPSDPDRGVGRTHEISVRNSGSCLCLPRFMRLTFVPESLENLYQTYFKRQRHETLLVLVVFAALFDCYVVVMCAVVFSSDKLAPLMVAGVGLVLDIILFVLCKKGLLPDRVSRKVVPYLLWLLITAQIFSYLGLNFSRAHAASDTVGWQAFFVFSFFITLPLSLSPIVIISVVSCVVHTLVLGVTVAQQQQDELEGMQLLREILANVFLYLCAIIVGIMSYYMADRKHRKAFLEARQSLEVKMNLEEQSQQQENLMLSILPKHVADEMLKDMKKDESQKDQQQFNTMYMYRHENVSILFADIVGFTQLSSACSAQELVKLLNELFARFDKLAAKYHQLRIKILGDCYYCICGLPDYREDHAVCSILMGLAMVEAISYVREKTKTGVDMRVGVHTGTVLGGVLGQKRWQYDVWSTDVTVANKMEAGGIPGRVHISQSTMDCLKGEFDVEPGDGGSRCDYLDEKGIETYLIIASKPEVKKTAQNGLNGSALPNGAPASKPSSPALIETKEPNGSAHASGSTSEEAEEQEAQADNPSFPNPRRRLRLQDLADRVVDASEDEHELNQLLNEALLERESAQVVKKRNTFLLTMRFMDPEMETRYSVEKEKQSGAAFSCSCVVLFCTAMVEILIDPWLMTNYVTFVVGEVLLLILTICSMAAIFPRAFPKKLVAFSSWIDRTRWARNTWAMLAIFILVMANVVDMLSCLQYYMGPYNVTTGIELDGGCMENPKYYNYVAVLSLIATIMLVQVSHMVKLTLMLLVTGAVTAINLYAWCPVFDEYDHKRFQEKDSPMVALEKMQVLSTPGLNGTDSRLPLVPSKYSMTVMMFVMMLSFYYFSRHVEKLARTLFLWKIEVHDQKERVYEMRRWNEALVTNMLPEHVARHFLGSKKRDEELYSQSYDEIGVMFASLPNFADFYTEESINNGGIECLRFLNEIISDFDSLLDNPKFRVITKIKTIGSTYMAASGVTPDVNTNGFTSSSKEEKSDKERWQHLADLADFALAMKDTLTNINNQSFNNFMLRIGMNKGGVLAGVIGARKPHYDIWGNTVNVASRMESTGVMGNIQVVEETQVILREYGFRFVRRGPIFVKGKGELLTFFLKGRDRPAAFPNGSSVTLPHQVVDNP
Description: (§1) FIG. 15: Effect of forskolin, 6[3-(dimethylamino)propionyl]-14,15-dihydroforskolin, and NKH477 on adenyl cyclase [isforms.] isoforms: Forskolin derivatives dose response effect (A-C). High five cell membranes overexpressing type II (A), type III (B), and type V (C) adenyl cyclases. Adenyl cyclase activity was measured in the presence of 5 mM of MgCl2 with various concentrations of forskolin (closed circles), 6[3-(dimethylamino)propionyl]-14,15-dihydroforskolin (D, open triangles) or NKH477 (open circles). Means±SEM from 4 independent experiments are shown. *, p<0.01 differences from the value with forskolin.

[2] = target: T2, AC2 (Rattus norvegicus, UniProt P26769); experiment: Adenyl cyclase stimulation by forskolin derivatives, High five cell membranes overexpressing type II; type: biochemical; design: made in house; host or cells: High Five insect cells (membranes); details: 5 mM MgCl2
Description: as §1

[3] = target: T3, AC5 (Canis lupus familiaris, UniProt P30803); experiment: Adenyl cyclase stimulation by forskolin derivatives, High five cell membranes overexpressing type V; type: biochemical; design: made in house; host or cells: High Five insect cells (membranes)
Description: as §1

[4] = target: T3, AC5; design: made in house; host or cells: High Five insect cells (membranes); details: previously reported; potency on AC2 and AC3 remained similar; cited from earlier work
[5] = system: AC5; experiment: AC catalytic activity inhibition, AC5 isoform; type: biochemical; details: for selectivity ratio between AC5 and AC2: inhibition of AC catalytic activity
Excerpt: (§2) FIG. 11. […] The relative inhibitory activity versus control (% control activity) for various AC isoforms are shown. Data are means±S.D. of quadruplicate determinations.
(§3) Classic inhibitors of AC include adenosine analogs or P-site inhibitors, and MDL12330A, a non-nucleic acid inhibitor. However, not much was known about the isoform selectivity of these inhibitors. […] It was previously noted that AC2 was less sensitive to THFA than the other isoforms, giving a selectivity ratio of 1.8 when compared between AC6 and AC2.
(§4) Inventors will first determine the selectivity among the AC isoforms (FIG. 12). […] The IC50 values were calculated to be 0.32 micro M for AC5, 11.1 micro M for AC3, 65.3 micro M for AC2. The selectivity ratio of HI30435 was 207 between AC5 and AC2. […] The selectivity ratio was 18 between AC5 and AC2.

[6] = target: T1, AC3; experiment: AC catalytic activity inhibition, AC3 isoform; type: biochemical; details: for IC50: 5 mM MgCl2 with Gsalpha/GTPgammaS/forskolin (50 micro M)
Excerpt: (§5) Classic inhibitors of AC include adenosine analogs or P-site inhibitors, and MDL12330A, a non-nucleic acid inhibitor.
(§6) Inventors will first determine the selectivity among the AC isoforms (FIG. 12).

[7] = target: T2, AC2; experiment: AC catalytic activity inhibition, AC2 isoform; type: biochemical
Excerpt: as §5, §6

[8] = system: H9C2 cells; experiment: cAMP accumulation in H9C2 cells; type: cell-based; details: 10 micro M forskolin and isoproterenol; compound 10 micro M
Description: FIG. 10: Effect of NKY80 and HI30435 on cAMP accumulation in H9C2 cells.[:] H9C2 cells were incubated in the presence of 10 micro M forskolin and isoproterenol and NKY80 or HI30435 (10 micro M), followed by cAMP accumulation assays (n=4-5, p<0.01).
as §4

[9] = target: T3, AC5; experiment: AC catalytic activity inhibition, AC5 isoform; type: biochemical; design: IC50 for AC5; other: 5 mM MgCl2 with Gsalpha/GTPgammaS/forskolin (50 micro M); other: in the presence of Gsalpha/GTPgammaS/forskolin; other: 10 micro M; details: for IC50: 5 mM MgCl2 with Gsalpha/GTPgammaS/forskolin (50 micro M)
Excerpt: as §2, §3, §4

[10] = system: striatal AC; experiment: D1 or D2 receptor agonist-stimulated AC activity in striatal membrane preparations; type: biochemical, mouse; details: WT striatal membranes; 1 μM
Description: AC catalytic activity was compared as previously described (15) using the membrane preparations from the striatum, cortex and cerebellum A). AC assays were conducted in the presence of 50 μM forskolin. […] D1 or D2 receptor agonist-stimulated AC activity was also examined (C). […] Each AC catalytic activity was compared to that in the presence of 10 μM GTP alone. Open bars, WT (^+/+); closed bars, AC5KO (^−/−). Means±SEM are shown. *p<0.05, **p<0.01, relative to ^+/+, n=4.
Striatal tissues were dissected from mice and membrane preparations were prepared for AC assays as previously described (10, 11).
We also examined receptor agonist-stimulated AC activity (FIG. 3C).

[11] = system: WT and AC5KO mice; experiment: Locomotor activity test with dopaminergic agonists; type: in vivo, mouse; details: subcutaneous, SKF38393 25 or 50 mg/kg, cabergoline 0.2 or 1.0 mg/kg
Description: FIG. 27. Motor dysfunction in ACD-^−/− mice. Rotarod test (A)—Each mouse was placed on a 3.5-cm diameter rod covered with rubber to evaluate rotarod performance (14). Mice were left for 1 minute on the rod for habituation. The rod rotated gradually increasing from 4 to 40 rpm over the course of 5 min and the time that mice could stay on an accelerating rotarod without failing was recorded. Five trials were conducted for each individual 10-25 min apart within the dark phase of the light/dark cycle. Mice that stayed on the rotarod for >300 sec were considered complete responders, and their latencies were recorded as 300 sec. *p<0.05, relative to ^+/+; ^+/−, n=17-20. […] Locomotor activity (B) was assessed using an activity monitor equipped with photocell beams (Columbus Instruments, Ohio, USA). The number of photobeam interruptions in each perpendicular axis was recorded and totaled for 5 min. The behavior of the mice was recorded simultaneously by video camera for later analysis, and their rearing actions were counted (C). *p<0.05, relative to ^+/+, n=15-20. […] The time until it turned completely downward (open bars, Tturn) and the time until it climbed down to the floor (closed bars, TLA) were measured *p<0.01, relative to ^+/+, n=14-17. […]
FIG. 32. […] In rotarod test, the best performance out of five trials in each individual was evaluated. […]

[12] = system: WT and AC5KO mice; experiment: Rotarod test with dopaminergic agonists; type: in vivo, mouse; details: WT and AC5KO; subcutaneous; 25 or 50 mg/kg
Description: (§7) FIG. 27. Motor dysfunction in ACD-^−/− mice. Rotarod test (A)—Each mouse was placed on a 3.5-cm diameter rod covered with rubber to evaluate rotarod performance (14). Mice were left for 1 minute on the rod for habituation. The rod rotated gradually increasing from 4 to 40 rpm over the course of 5 min and the time that mice could stay on an accelerating rotarod without failing was recorded. Five trials were conducted for each individual 10-25 min apart within the dark phase of the light/dark cycle. Mice that stayed on the rotarod for >300 sec were considered complete responders, and their latencies were recorded as 300 sec. *p<0.05, relative to ^+/+; ^+/−, n=17-20. Activity tests (B and C)—The tests were performed as previously described (14, 15). Mice were put in the darkened testing room 60 minutes for habituation before testing. Locomotor activity (B) was assessed using an activity monitor equipped with photocell beams (Columbus Instruments, Ohio, USA). The number of photobeam interruptions in each perpendicular axis was recorded and totaled for 5 min. The behavior of the mice was recorded simultaneously by video camera for later analysis, and their rearing actions were counted (C). *p<0.05, relative to ^+/+, n=15-20. Pole test (D)—In order to evaluate bradykinesia, pole test was performed (16). In brief, mice were placed head upward on the top of a rough-surfaced pole (8 mm in diameter and 50 cm in height) that was wrapped with gauze to prevent slipping. The time until it turned completely downward (open bars, Tturn) and the time until it climbed down to the floor (closed bars, TLA) were measured *p<0.01, relative to ^+/+, n=14-17. Means±SEM are shown. Homozygous to (ACD^−/−) (closed circles, ^−/−), heterozygous (shaded circles, ^+/−), and wild type (WT) (open circles, ^+/+).
(§8) FIG. 32. Effect of dopaminergic agonists on motor functions Effects of SKF38393 on locomotor activity (A), rotarod test (B), and pole test (C) were compared. […] In rotarod test, the best performance out of five trials in each individual was evaluated. […]

[13] = system: WT and AC5KO mice; experiment: Pole test with dopaminergic agonists; type: in vivo, mouse; details: subcutaneous
Description: as §7, §8

[14] = target: AC6 (Homo sapiens, UniProt O43306); details: previously noted; cited from earlier work
[15] = in the presence of Gsalpha/GTPgammaS/forskolin

T3 sequence (P30803 whole entry): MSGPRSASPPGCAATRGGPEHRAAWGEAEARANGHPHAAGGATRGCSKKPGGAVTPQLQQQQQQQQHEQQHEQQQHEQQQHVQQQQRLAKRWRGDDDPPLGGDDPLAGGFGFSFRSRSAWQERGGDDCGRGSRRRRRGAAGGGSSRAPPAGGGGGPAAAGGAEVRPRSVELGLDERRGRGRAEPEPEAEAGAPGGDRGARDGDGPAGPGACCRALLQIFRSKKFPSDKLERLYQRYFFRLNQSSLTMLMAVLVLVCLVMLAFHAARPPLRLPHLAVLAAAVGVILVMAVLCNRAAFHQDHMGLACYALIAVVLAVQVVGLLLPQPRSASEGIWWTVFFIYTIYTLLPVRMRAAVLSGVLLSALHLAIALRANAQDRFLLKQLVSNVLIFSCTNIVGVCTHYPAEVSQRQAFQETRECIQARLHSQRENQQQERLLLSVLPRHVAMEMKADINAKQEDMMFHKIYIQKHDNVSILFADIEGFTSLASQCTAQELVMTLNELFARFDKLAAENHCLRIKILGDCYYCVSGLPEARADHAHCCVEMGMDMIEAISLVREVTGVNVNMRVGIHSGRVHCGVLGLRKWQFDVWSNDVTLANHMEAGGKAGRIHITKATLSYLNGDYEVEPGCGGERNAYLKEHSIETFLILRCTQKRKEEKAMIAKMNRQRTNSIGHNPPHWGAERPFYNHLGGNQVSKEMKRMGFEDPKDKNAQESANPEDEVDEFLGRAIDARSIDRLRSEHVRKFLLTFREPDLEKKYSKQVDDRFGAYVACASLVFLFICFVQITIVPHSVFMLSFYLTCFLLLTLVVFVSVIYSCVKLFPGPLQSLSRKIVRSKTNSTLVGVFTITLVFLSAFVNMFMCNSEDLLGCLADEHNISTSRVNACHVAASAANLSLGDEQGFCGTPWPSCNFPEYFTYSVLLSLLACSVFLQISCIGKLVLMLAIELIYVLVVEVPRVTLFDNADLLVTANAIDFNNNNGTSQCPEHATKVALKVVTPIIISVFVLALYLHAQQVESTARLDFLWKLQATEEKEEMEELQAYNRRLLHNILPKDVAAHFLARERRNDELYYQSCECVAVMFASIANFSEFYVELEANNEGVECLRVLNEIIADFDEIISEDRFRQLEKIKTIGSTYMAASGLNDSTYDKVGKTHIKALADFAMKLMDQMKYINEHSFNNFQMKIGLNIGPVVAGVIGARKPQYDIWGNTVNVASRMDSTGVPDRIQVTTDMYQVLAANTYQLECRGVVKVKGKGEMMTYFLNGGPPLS
T2 sequence (P26769 whole entry): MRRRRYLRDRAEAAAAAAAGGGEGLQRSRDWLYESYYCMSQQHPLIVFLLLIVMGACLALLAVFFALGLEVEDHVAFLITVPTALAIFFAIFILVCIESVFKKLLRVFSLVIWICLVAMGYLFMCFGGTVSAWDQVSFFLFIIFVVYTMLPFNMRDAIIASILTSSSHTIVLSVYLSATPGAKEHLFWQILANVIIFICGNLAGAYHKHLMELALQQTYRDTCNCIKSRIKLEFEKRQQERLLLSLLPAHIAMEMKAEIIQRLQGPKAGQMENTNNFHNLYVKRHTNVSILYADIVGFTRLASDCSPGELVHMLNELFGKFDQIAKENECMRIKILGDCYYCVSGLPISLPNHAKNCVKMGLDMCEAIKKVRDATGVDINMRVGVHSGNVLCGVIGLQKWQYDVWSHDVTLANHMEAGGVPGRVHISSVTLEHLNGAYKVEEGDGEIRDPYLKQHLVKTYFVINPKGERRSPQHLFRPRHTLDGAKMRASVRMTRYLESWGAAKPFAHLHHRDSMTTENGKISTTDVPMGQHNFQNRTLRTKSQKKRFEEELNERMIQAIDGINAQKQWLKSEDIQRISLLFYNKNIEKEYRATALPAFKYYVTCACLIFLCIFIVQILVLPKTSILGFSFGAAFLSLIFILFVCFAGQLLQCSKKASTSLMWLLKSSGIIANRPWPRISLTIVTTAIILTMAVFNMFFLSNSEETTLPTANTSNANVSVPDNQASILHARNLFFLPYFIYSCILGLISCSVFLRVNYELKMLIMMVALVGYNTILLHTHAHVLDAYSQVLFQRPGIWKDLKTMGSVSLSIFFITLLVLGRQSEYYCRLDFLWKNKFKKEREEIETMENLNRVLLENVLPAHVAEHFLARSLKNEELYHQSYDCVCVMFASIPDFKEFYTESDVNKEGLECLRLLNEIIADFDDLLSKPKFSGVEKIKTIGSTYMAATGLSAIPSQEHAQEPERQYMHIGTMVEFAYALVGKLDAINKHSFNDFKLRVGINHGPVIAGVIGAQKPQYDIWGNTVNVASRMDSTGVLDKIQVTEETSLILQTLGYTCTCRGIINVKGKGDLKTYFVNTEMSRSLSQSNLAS
Sequence of AC6 (O43306 whole entry): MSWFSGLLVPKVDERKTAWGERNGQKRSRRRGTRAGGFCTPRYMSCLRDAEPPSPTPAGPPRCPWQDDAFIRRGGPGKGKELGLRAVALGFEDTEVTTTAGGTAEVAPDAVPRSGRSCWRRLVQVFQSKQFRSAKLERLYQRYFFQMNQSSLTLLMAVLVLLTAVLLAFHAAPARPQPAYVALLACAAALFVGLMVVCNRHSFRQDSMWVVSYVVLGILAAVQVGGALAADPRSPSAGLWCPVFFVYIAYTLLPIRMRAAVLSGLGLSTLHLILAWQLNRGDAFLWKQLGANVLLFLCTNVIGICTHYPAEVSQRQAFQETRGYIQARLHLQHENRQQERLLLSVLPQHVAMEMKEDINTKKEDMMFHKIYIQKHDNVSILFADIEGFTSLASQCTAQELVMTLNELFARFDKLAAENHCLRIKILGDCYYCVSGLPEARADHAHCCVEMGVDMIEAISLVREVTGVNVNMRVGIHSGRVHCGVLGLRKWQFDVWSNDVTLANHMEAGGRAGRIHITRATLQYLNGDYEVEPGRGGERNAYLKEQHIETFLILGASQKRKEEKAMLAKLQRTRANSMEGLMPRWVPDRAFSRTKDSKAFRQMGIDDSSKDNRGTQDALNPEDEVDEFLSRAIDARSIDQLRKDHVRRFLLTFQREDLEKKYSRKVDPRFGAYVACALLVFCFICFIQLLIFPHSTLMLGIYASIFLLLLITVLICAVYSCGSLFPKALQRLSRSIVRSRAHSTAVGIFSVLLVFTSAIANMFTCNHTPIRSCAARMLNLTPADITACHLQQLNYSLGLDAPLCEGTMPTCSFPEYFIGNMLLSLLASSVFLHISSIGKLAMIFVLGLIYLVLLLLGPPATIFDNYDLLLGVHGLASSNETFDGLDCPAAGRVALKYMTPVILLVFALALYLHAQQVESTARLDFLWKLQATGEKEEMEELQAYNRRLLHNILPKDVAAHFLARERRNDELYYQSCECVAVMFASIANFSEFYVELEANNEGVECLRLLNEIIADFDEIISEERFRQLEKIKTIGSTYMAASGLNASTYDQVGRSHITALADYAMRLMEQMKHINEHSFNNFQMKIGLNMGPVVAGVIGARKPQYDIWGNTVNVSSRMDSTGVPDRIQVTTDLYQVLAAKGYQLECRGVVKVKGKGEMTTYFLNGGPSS

In the case of `CCC1(C)CC(=O)C2(O)C(C)(O1)C(OC(C)=O)C(OC(=O)CCN(C)C)C1C(C)(C)CCC(O)C12C` (centres unmarked) [6-3(dimethylaminopropionyl]-14,15-dihydroforskolin], the “relative potency of stimulation versus forskolin, AC3” value [1] is reported as 31%, the “relative potency of stimulation versus forskolin, AC2” value [2] is reported as 66% and the “relative potency of stimulation versus forskolin, AC5” value ([3]; 5 mM MgCl2) is reported as 139%. For the same compound, the “AC5 selectivity of stimulation (in words)” value ([3]; forskolin derivatives) was “further enhancement in selectivity for AC5”.
For `C=C[C@@]1(C)CC(=O)[C@]2(O)[C@@]3(C)[C@@H](O)CCC(C)(C)[C@@H]3[C@H](OC(=O)CCN(C)C)[C@H](OC(C)=O)[C@@]2(C)O1` [NKH477], the “stimulation of AC5 (in words)” value [4] is given as “enhanced stimulation of AC5”.
For `Nc1ncc2c(n1)CC(c1ccco1)CC2=O` (centres unmarked) [NKY80, 2-amino-7-(2-furanyl)-7,8-dihydro-5(6H)-quinazolinone], the mode of inhibition ([5]; Lineweaver-Burk plot analysis) was “not competitive with respect to ATP or forskolin”, the “selectivity ratio between AC5 and AC2” value [5] was 210 and the IC50 [6] was 132 µM. For the same compound, the IC50 ([7]; Gsalpha/GTPgammaS/forskolin) was 1700 µM, the “cAMP accumulation in H9C2 cells” value [8] was “but not NKY80, inhibited cAMP accumulation; also recorded: did not” and the IC50 [9] was 8.3 µM.
With `Oc1cc2c(cc1O)C(c1ccccc1)CNCC2` (centres unmarked) [SKF38393] the “stimulation of AC activity, increase over that with 10 μM GTP” value [10] was 40.7±2.6%, the locomotor activity [11] was “increased locomotor activity in both WT and AC5KO” and the rotarod performance [12] was “did not improve rotarod performance in both WT and AC5KO”. For the same compound, the pole test performance [13] was “improved pole test performance”.
In the case of `Nc1ncnc2c1ncn2C1CCCO1` (centres unmarked) [THFA, 9-(tetrahydro-2-furyl)adenine], the “selectivity ratio between AC5 and AC2” value [5] is reported as 130, the IC50 [6] is reported as 101 µM and the “inhibition of AC3 (in words)” value [6, 15] is reported as “only to a modest degree”. For the same compound, the IC50 ([7]; 5 mM MgCl2 with Gsalpha/GTPgammaS/forskolin (50 micro M)) was 285 µM, the “inhibition of AC2 (in words)” value [7, 15] was “only to a modest degree” and the “selectivity ratio between AC6 and AC2” value [14] was 1.8. For the same compound, the IC50 [9] was 2.2 µM and the “inhibition of AC5 (in words)” value [9, 15] was “potently inhibited AC5”.
